In ChEMBL document CHEMBL4376808, “Triphenylphosphonium Analogues of Betulin and Betulinic Acid with Biological Activity: A Comprehensive Review” (J Nat Prod, 2019):

Experiments:
Format in all cases: functional, cell-based
HCT-116 = assay: Cytotoxic activity in human HCT116 cells assessed as reduction in cell viability
A549 = assay: Cytotoxic activity in human A549 cells assessed as reduction in cell viability
MCF7 = assay: Cytotoxic activity in human MCF7 cells assessed as reduction in cell viability

C=C(C)[C@@H]1CC[C@]2(C(=O)O)CC[C@]3(C)[C@H](CC[C@@H]4[C@@]5(C)CC[C@H](OC(C)=O)C(C)(C)[C@@H]5CC[C@]43C)[C@@H]12
IC50 (HCT-116): 9.6 µM

C=C(C)[C@@H]1CC[C@]2(C(=O)OCc3cn(-c4cccc(C(=O)O)c4)nn3)CC[C@]3(C)[C@H](CC[C@@H]4[C@@]5(C)CCC(=O)C(C)(C)[C@@H]5CC[C@]43C)[C@@H]12
IC50 (HCT-116): 4 µM

C=C(C)[C@@H]1CC[C@]2(C(=O)OCc3cn(-c4cccc(O)c4)nn3)CC[C@]3(C)[C@H](CC[C@@H]4[C@@]5(C)CCC(=O)C(C)(C)[C@@H]5CC[C@]43C)[C@@H]12
IC50 (A549): 3.7 µM

C=C(C)[C@@H]1CC[C@]2(C(=O)OCc3cn(-c4ccc5c(c4)OCO5)nn3)CC[C@]3(C)[C@H](CC[C@@H]4[C@@]5(C)CCC(=O)C(C)(C)[C@@H]5CC[C@]43C)[C@@H]12
IC50 (A549): 5 µM

C=C(C)[C@@H]1CC[C@]2(C(=O)O)CC[C@]3(C)[C@H](CC[C@@H]4[C@@]5(C)CC/C(=N/Nc6ccc([N+](=O)[O-])cc6[N+](=O)[O-])C(C)(C)[C@@H]5CC[C@]43C)[C@@H]12
IC50 (MCF7): 8.2 µM

C=C(C)[C@@H]1CC[C@]2(C(=O)OCc3cn(-c4ccc(O)c(C)c4)nn3)CC[C@]3(C)[C@H](CC[C@@H]4[C@@]5(C)CCC(=O)C(C)(C)[C@@H]5CC[C@]43C)[C@@H]12
IC50 (HCT-116): 3.5 µM

C=C(C)[C@@H]1CC[C@]2(C(=O)O)CC[C@]3(C)[C@H](CC[C@@H]4[C@@]5(C)CC[C@H](C#CCN6CCCC6)C(C)(C)[C@@H]5CC[C@]43C)[C@@H]12
IC50 (MCF7): 5.5 µM
